Measurements taken from patent US20110319427A1 (priority 2009, published 2011).
Peptide text beside a SMILES is read from it. * marks the point of attachment. Cbz = O=C(OCc1ccccc1)*

How the values were obtained:
THP1/BTZ500 [1] = conditions: data from Oerlemans et al, 2008; cited from earlier work
THP1/BTZ100 [2] = conditions: data from Oerlemans et al, 2008; cited from earlier work
THP1/WT = conditions: data from Oerlemans et al, 2008; cited from earlier work
THP1/BTZ200 [3] = conditions: data from Oerlemans et al, 2008; cited from earlier work
THP1/BTZ50 [4] = conditions: data from Oerlemans et al, 2008; cited from earlier work
LD50 in mice = conditions: mouse, in vivo
[5] = target: T1, proteasome isolated from archaebacterium T. acidophilum (Thermoplasma acidophilum, UniProt P25156); assay: enzymatic activity of purified T. acidophilum proteasome (Suc-LLVY-AMC cleavage); assay type: biochemical
T1 construct: made in house
T1 sequence (P25156 whole entry): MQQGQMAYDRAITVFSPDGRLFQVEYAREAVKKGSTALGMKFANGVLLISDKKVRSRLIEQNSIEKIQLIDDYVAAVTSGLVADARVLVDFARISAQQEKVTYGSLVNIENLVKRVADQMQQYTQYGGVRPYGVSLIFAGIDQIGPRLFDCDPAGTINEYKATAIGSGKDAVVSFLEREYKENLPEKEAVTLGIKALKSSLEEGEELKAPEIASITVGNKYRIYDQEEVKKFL
T1 sequence (P28061 9-211 partner): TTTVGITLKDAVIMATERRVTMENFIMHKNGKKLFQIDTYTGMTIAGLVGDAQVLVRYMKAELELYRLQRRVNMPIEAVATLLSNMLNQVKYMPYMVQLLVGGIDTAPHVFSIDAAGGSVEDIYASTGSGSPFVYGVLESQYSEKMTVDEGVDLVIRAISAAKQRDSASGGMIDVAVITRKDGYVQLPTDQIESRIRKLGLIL
Description: Data represent the mean±SD. A Lineweaver-Burk plot is presented as a fit to a noncompetitive model of inhibition.
(§1) Proteasome complexes were isolated from rabbit reticulocytes and T. acidophilum as described previously.

[6] = tested on: chymotrypsin-like activity of the proteasome in leukemia, myeloma, and solid tumor cell lines; assay: proteasome activity after treatment of intact cells (Suc-LLVY-AMC); conditions: intact cells treated 24 hours, then lysed
Description: A) Myeloma, leukemia, and solid tumor cell lines were treated with increasing concentrations of 5AHQ. Twenty hours after treatment, cells were lysed and the preferential chymotrypsin-like substrate Suc-LLVY-AMC was added. The generation of free AMC was measured over time with a fluorescent spectrophotometric plate reader as described in the Materials and Methods. Data represent the mean±SD maximal rate of proteasomal activity expressed as a percentage of buffer treated cells.
To measure the effects of 5AHQ on the enzymatic activity of the proteasome in intact cells, solid tumor, leukemia and myeloma cell lines were treated with increasing concentrations of 5AHQ. Twenty hours after treatment, cells were lysed in 50 mM HEPES pH 7.5, 150 mM NaCl and 1% Triton X-100, and 2 mM ATP. To equal protein concentrations, the proteasome fluorogenic substrate, Suc-LLVY-AMC, was added and the generation of free AMC was measured over time with a fluorescent spectrophotometric plate reader as above.
Leukemia, myeloma, and solid tumor cell lines were treated with increasing concentration of 5AHQ for 24 hours. After treatment, cells were harvested, lysed, and the chymotrypsin-like activity of the proteasome was measured by monitoring the rate of cleavage of the fluorescent substrate Suc-LLVY-AMC.

THP1/BTZ200 [7] = assay: cells; conditions: Homo sapiens, THP-1, 72 h, read-out: IC50 5AHQ
Description: (§5) Cell lines. Human multiple myeloma (MM) and solid tumor cell lines were grown in Iscove's Modified Dulbecco's Medium (IMDM). […] These cells were maintained in bortezomib up to at least 7 days prior to the experiment. Media were supplemented with 10% fetal calf serum (FCS), 100 ug/mL penicillin, and 100 units/mL streptomycin (all from Hyclone, Logan, Utah).
(§6) After incubation, cell viability was measured by trypan blue staining.

[8] = tested on: bortezomib-resistant THP1 leukemia cells (β5 proteasome subunit mutated and over-expressed); conditions: 72 hours, trypan blue staining
Description: as §5, §6

[9] = tested on: NFkappaB p50 subunit DNA binding in MDAY-D2 cells; assay: NFkappaB activity (p50 DNA-binding ELISA); assay type: cell-based, murine; conditions: 24 hours 5AHQ, with and without TNF-alpha
Description: NFkappaB activity was measured using the Trans-AM NFkappaB p65 transcription factor assay kit (Active Motif, Carlsbad, Calif.) according to the manufacturer's instructions. […] Nuclear extracts were prepared using the Nuclear Extract kit (Active Motif, Carlsbad, Calif.) according to the manufacturer's instructions. Binding of the NFkappaB transcription factor subunit p50 to the DNA consensus sequence (5′-[…]-3′) cross linked to 96-well plates was measured using enzyme-linked immunosorbent assay (ELISA) technology with absorbance reading according to the manufacturer's protocol.

[10] = target: T2, proteasomes isolated from rabbit reticulocytes; assay type: biochemical; conditions: Lineweaver-Burk plot analysis, noncompetitive model
T2 construct: Ki
Description: (§2) Data represent the mean±SD.
(§3) After incubation, cleavage of the fluorogenic substrate Z-Leu-Leu-Glu-AMC was measured as above. […] The approximate binding sites of bortezomib that is located inside the catalytic chamber are also indicated.
as §1
(§4) Data are expressed as mean values±SD. The statistical significance was computed with Student's t-test. […] Isobologram analysis was performed with CalcuSyn software (Biosoft, Ferguson, Mo., and Cambridge, UK). A combination index (CI) less than 1.0 indicated synergism.

[11] = tested on: T3, proteasomes isolated from rabbit reticulocytes; assay type: biochemical; conditions: Lineweaver-Burk plot analysis
T3 construct: other: Lineweaver-Burk plot analysis; other: at the Fa 10; other: at the Fa 25; other: at the Fa 50
Description: as §2, §3, §1, §4

myeloma cell lines = assay: cell viability MTS assay, myeloma cell lines; assay type: cell-based, human; conditions: 72 hours, in 7/7 myeloma cell lines
leukemia cell lines = assay: cell viability MTS assay, leukemia cell lines; assay type: cell-based, human and murine; conditions: 72 hours, in 6/10 leukemia cell lines
[12] = target: T4, α7-α7 half-proteasome of the T. acidophilum 20S proteasome (Thermoplasma acidophilum, UniProt P25156); assay: inhibitor binding to the proteasome by NMR; conditions: 50° C., methyl-labelled α7-α7
T4 construct: His-tag (N, cleaved yes); made in house
T4 sequence (P25156 whole entry): as the sequence (P25156 whole entry) above
Description: The 20S proteasome from T. acidophilum was produced as described previously with the alpha and beta subunits co-expressed from 2 different plasmids (where the beta subunit carried a C terminal His-tag). Samples of the half-proteasome comprised of pairs of alpha-rings, a7-a7, were produced by overexpression of the a subunit that carried a N-terminal cleavable His-tag that was removed during purification. Methyl labelling of proteins for NMR analysis was achieved by growing cells in D2O based minimal medium with ^2H-^12C glucose as the carbon source. One hour before induction of protein expression, alpha-ketobutyric acid (60 mg/L) and alpha-ketoisovaleric acid (100 mg/L; only one of the two isopropyl methyls was ^13CH3 labeled, the other ^12CD3) were added to introduce ^13CH3 methyl groups in Ile, Leu and Val. Proteins were purified by Ni-NTA affinity resin and size exclusion chromatography.
NMR experiments with the (a7-a7) proteasome were performed on Varian 600 MHz spectrometers at 50° C. on samples that were ˜[…], 100% D2O, 25 mM potassium phosphate pH 6.8, 50 mM NaCl, 1 mM EDTA, 0.03% NaN3 and 2 mM DTT similar to previously described. NMR data was processed and analyzed with the nmrPipe/nmrDraw software package.

[13] = tested on: OCI-AML2 or K562 human leukemia cells, MDAY-D2 murine leukemia cells in NOD-SCID mice; assay: mouse models of leukemia (xenograft), oral 5AHQ; assay type: in vivo
Description: Sublethally irradiated NOD/SCID mice were injected subcutaneously with U937 and K562 leukemia cells or intraperitoneally with MDAY-D2 leukemia cells. […] Eight (MDAY-D2) or ten (U937 and K562) days after tumor inoculation, mice were sacrificed, the subcutaneous or intraperitoneal tumor excised, and the weight of the tumors measured. The bars represent the median of the population. p values reflect the Mann-Whitney non-parametric test.
MDAY-D2 murine leukemia cells (5×10^5) were injected intraperitoneally into sublethally irradiated (3.5 Gy) NOD/SCID mice (Ontario Cancer Institute, Toronto, Canada). […] Mice were sacrificed, and the weight and volume of the intraperitoneal tumors were measured.
K562 leukemia cells (3×10^6) or U937 leukemia cells (2×10^6) were injected subcutaneously (s.c.) into the flank of sublethally irradiated NOD/SCID mice. […] Mice were then sacrificed, and the weight of the tumors was measured.
Sublethally irradiated NOD-SCID mice were injected subcutaneously with OCI-AML2 or K562 human leukemia cells or intraperitoneally with MDAY-D2 murine leukemia cells.

THP1/BTZ50 [14] = assay: cells; conditions: Homo sapiens, THP-1, 72 h, read-out: IC50 5AHQ
Description: as §5, §6

[15] = tested on: proteasome in protein extracts from MDAY-D2 leukemia cells; assay: proteasome activity in cell extracts (Suc-LLVY-AMC); assay type: biochemical, murine; conditions: added to extracts derived from MDAY-D2 leukemia cells
Description: A) Protein extracts from MDAY-D2 leukemia cells were treated with aliquots of compounds from a focused chemical library (final concentration 5 μM).

[16] = tested on: normal hematopoietic cells; assay: viability of normal hematopoietic cells (PBSC); assay type: cell-based, human
Description: Forty-eight hours after treatment, cell viability was measured by the MTS assay. Data represent the mean±SD percent viability compared to buffer treated cells. D) Primary acute myeloid leukemia (AML) blasts (n=4), CLL (n=5) or normal peripheral blood stem cells (PBSC) (n=3) were obtained from the peripheral blood of consenting patients with AML, CLL or donors of PBSC for allotransplantation, respectively. […] Data represent the mean±SD percentage of viable cells compared to buffer treated cells.
Primary cells. Primary human acute myeloid leukemia (AML) and chronic lymphocytic leukemia (CLL) samples were isolated from peripheral blood samples from consenting patients with AML and CLL, respectively, who had at least 80% malignant cells among the mononuclear cells in their peripheral blood. Primary normal hematopoietic cells were obtained from healthy volunteers donating peripheral blood mononuclear stem cells (PBSC) for allotransplantation. […]
Cell viability was assessed by the MTS (Promega, Madison, Wis.) and Alamar Blue Fluorescence assays (Invitrogen, Carlsbad, Calif.) according to manufacturer's instructions and as previously described [14]. Apoptosis was measured by Annexin V-FITC (Biovision Research Products, Mountain View, Calif.) staining and flow cytometry according to manufacturer's instructions and as previously described.

THP1/BTZ500 [17] = assay: cells; conditions: Homo sapiens, THP-1, 72 h, read-out: IC50 5AHQ
Description: as §5, §6

THP1/BTZ100 [18] = assay: cells; conditions: Homo sapiens, THP-1, 72 h, read-out: IC50 5AHQ
Description: as §5, §6

[19] = tested on: CEM cells over-expressing the multidrug resistant pumps Pgp, BCRP, or MRP1; assay: cell death in bortezomib-resistant CEM cells; assay type: cell-based; conditions: CEM cells resistant to bortezomib by over-expression of Pgp
LP1 myeloma cell lines = assay: ubiquitinated proteins by immunoblotting; assay type: cell-based, human; conditions: 24 hours after treatment
Description: Whole cell lysates were prepared from myeloma cells as described previously. Briefly, cells were washed with phosphate-buffered saline (PBS, pH 7.4) and re-suspended in lysis buffer [10 mM Tris (pH 7.4), 150 mM NaCl, 0.1% Triton X-100, 0.5% sodium deoxycholate, and 5 mM EDTA] containing protease inhibitors (Complete tablets, Roche, Indianapolis, Ind.). Protein concentrations were determined by the Bradford assay. Equal amounts of protein were subjected to SDS-PAGE gels followed by transfer to nitrocellulose membranes. Membranes were probed with rabbit anti-human polyclonal anti-ubiquitin (1:1000 v/v) (Calbiochem, San Diego, Calif.), or mouse monoclonal anti-beta actin (1:10,000 v/v) (Sigma) followed by secondary horseradish peroxidase (HRP)-conjugated goat anti-mouse (1:10,000 v/v) or anti-rabbit IgG (1:5,000 v/v) (Amersham Bioscience UK, Little Chalfont, England). Detection was performed by the Enhanced Chemical Luminescence (ECL) method (Pierce, Rockford, Ill.).
Twenty four hours after treatment, the abundance of ubiquitinated proteins in the cells was measured by immunoblotting.

solid tumor cell lines = assay: cell viability MTS assay, solid tumor cell lines; assay type: cell-based, human; conditions: 72 hours, in 3/10 solid tumor cell lines
proteasome = conditions: non-competitive inhibitor binding the alpha subunits [8]; cited from earlier work

Structure (SMILES): CC(C)C[C@H](NC(=O)[C@H](Cc1ccccc1)NC(=O)c1cnccn1)B(O)O [bortezomib, [(1R)-3-Methyl-1-[[(2S)-1-oxo-3-phenyl-2-[(pyrazinylcarbonyl)amino]propyl]amino]butyl]boronic acid]
- RF BTZ (Resistance Factor) (THP1/BTZ500 [1]): 237
- RF BTZ (Resistance Factor) (THP1/BTZ100 [2]): 79
- RF BTZ (Resistance Factor) (THP1/WT): 1
- RF BTZ (Resistance Factor) (THP1/BTZ200 [3]): 129
- RF BTZ (Resistance Factor) (THP1/BTZ50 [4]): 45

Structure (SMILES): Nc1ccc(O)c2ncccc12 [5AHQ, 5-amino-8-hydroxyquinoline]
- LD50 (LD50 in mice): > 1000 mg/kg
- Ki [5]: 161 ± 4 µM
- mode of inhibition ([5]; Lineweaver-Burk plot): non-competitive kinetics
- rate of Suc-LLVY-AMC cleavage [6]: inhibited the rate of Suc-LLVY-AMC cleavage
- IC50 (THP1/BTZ200 [7]): 6.4 ± 0.7 µM
- sensitivity to 5AHQ [8]: remained essentially fully sensitive to 5AHQ
- NFkappaB activity [9]: inhibited basal and TNF-alpha stimulated NFkappaB activity
- Ki [10]: 2.1 ± 0.18 µM
- mode of inhibition [11]: noncompetitively
- LD50 (myeloma cell lines): < 5 µM
- LD50 (leukemia cell lines): < 5 µM
- NMR spectral changes on binding [12]: clear spectral changes localized to residues Ile159, Val113, Val87, Val82, Leu112, Val89, Val134, Val24 and Leu136
- decrease of tumor weight and volume compared to control ([13]; 50 mg/kg/day by oral gavage, all 3 mouse models): at least 50%
- weight loss or gross organ toxicity ([13]; mouse, in vivo): without causing weight loss or gross organ toxicity
- IC50 (THP1/BTZ50 [14]): 6.6 ± 0.4 µM
- inhibition of the enzymatic activity of the proteasome [15]: inhibited the enzymatic activity of the proteasome at low micromolar concentrations
- concentration up to which not cytotoxic [16]: > 62.5 µM
- IC50 (THP1/BTZ500 [17]): 6.6 ± 0.9 µM
- IC50 (THP1/BTZ100 [18]): 6.3 ± 0.4 µM
- sensitivity to 5AHQ-induced cell death [19]: remained equally sensitive to 5AHQ-induced cell death
- amount of ubiquitinated protein (LP1 myeloma cell lines): increased the amount of ubiquitinated protein
- LD50 (solid tumor cell lines): < 5 µM

Structure (SMILES): CCN(CC)CCCC(C)Nc1ccnc2cc(Cl)ccc12 (centres unmarked) [chloroquine]
- proteasome inhibition relative to 5AHQ (proteasome): much weaker proteasome inhibitor than 5AHQ

Structure (SMILES): CC(C)C[C@@H](C=O)NC(=O)[C@H](CC(C)C)NC(=O)[C@H](CC(C)C)NC(=O)OCc1ccccc1 [MG132, reference compound] (Cbz-Leu-Leu-Leu-aldehyde)
- mode of inhibition [11]: competitively
